Test results reported in patent publication US20110015371A1 (Vertex Pharmaceuticals Incorporated, priority 1994, published 2011).

Tests used:
[1] = tested on: Human Peripheral Blood Mononuclear Cells (PBMC) or Enriched Adherent Mononuclear Cells; test: Cell assay: IL-1β assay with human PBMC or enriched adherent mononuclear cells; format: cell-based; details: LPS-stimulated cells, mature IL-1β in supernatant by ELISA
Source text: IL-1β Assay with a Mixed Population of Human Peripheral Blood Mononuclear Cells (PBMC) or Enriched Adherent Mononuclear Cells
Processing of pre-IL-1S by ICE can be measured in cell culture using a variety of cell sources. Human PBMC obtained from healthy donors provides a mixed population of lymphocyte subtypes and mononuclear cells that produce a spectrum of interleukins and cytokines in response to many classes of physiological stimulators. Adherent mononuclear cells from PBMC provides an enriched source of normal monocytes for selective studies of cytokine production by activated cells.
An initial dilution series of test compound in DMSO or ethanol is prepared, with a subsequent dilution into RPMI-10% FBS media (containing 2 mM L-glutamine, 10 mM HEPES, 50 U and 50 ug/ml pen/strep) respectively to yield drugs at 4× the final test concentration containing 0.4% DMSO or 0.4% ethanol. The final concentration of DMSO is 0.1% for all drug dilutions. A concentration titration which brackets the apparent Ki for a test compound determined in an ICE inhibition assay is generally used for the primary compound screen.
We generally test 5-6 compound dilutions and have performed the cellular component of the assay in duplicate, with duplicate ELISA determinations on each cell culture supernatant.
Buffy coat cells isolated from one pint human blood (yielding 40-45 ml final volume plasma plus cells) are diluted with media to 80 ml and LeukoPREP separation tubes (Becton Dickinson) are each overlaid with 10 ml of cell suspension. After 15 min centrifugation at 1500-1800×g, the plasma/media layer is aspirated and then the mononuclear cell layer is collected with a Pasteur pipette and transferred to a 15 ml conical centrifuge tube (Corning). Media is added to bring the volume to 15 ml, gently mix the cells by inversion and centrifuge at 300×g for 15 min. Resuspend the PBMC pellet in a small volume of media, count cells and adjust to 6×10^6 cells/ml.
For the cellular assay, add 1.0 ml of the cell suspension to each well of a 24-well flat bottom tissue culture plate (Corning), 0.5 ml test compound dilution and 0.5 ml LPS solution (Sigma #L-3012; 20 ng/ml solution prepared in complete RPMI media; final LPS concentration 5 ng/ml). The 0.5 ml additions of test compound and LPS are usually sufficient to mix the contents of the wells. Three control mixtures are run per experiment, with either LPS alone, solvent vehicle control, and/or additional media to adjust the final culture volume to 2.0 ml. The cell cultures are incubated for 16-18 hr at 37° C. in the presence of 5% CO2.
At the end of the incubation period, cells are harvested and transferred to 15 ml conical centrifuge tubes. After centrifugation for 10 min at 200×g, supernatants are harvested and transferred to 1.5 ml Eppendorf tubes. It may be noted that the cell pellet may be utilized for a biochemical evaluation of pre-IL-1S and/or mature IL-1β content in cytosol extracts by western blotting or ELISA with pre-IL-1β specific antisera.
PBMC are isolated and prepared as described above. Media (1.0 ml) is first added to wells followed by 0.5 ml of the PBMC suspension. After a one hour incubation, plates are gently shaken and nonadherent cells aspirated from each well. Wells are then gently washed three times with 1.0 ml of media and final resuspended in 1.0 ml media. The enrichment for adherent cells generally yields 2.5−3.0×10^5 cells per well. The addition of test compounds, LPS, cell incubation conditions and processing of supernatants proceeds as described above.
We have used Quantikine kits (R&D Systems) for measurement of mature IL-1β. Assays are performed according to the manufacturer's directions. Mature IL-1β levels of about 1-3 ng/ml in both PBMC and adherent mononuclear cell positive controls are observed. ELISA assays are performed on 1:5, 1:10 and 1:20 dilutions of supernatants from LPS-positive controls to select the optimal dilution for supernatants in the test panel.

ICE = target: T1, ICE (Homo sapiens, UniProt P29466); test: Enzyme assay with UV-visible substrate (Succinyl-Tyr-Val-Ala-Asp-pNitroanilide); format: biochemical
T1 sequence (P29466 120-297 limits assumed): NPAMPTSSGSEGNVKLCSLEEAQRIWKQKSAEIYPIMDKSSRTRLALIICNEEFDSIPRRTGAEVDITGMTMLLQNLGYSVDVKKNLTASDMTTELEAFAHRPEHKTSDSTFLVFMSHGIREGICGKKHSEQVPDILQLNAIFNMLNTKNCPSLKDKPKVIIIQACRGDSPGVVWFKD
T1 sequence (P29466 317-404 limits assumed): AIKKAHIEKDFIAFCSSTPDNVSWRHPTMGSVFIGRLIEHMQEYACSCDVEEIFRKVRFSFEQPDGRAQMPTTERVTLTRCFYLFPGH
Method: 1. Enzyme Assay with UV-Visible Substrate
This assay is run using an Succinyl-Tyr-Val-Ala-Asp-pNitroanilide substrate. Synthesis of analogous substrates is described by L. A. Reiter (Int. J. Peptide Protein Res. 43, 87-96 (1994)). The assay mixture contains:
The visible ICE assay is run in a 96-well microtiter plate. Buffer, ICE and DMSO (if inhibitor is present) are added to the wells in the order listed. The components are left to incubate at room temperature for 15 minutes starting at the time that all components are present in all wells. The microtiter plate reader is set to incubate at 37° C. After the 15 minute incubation, substrate is added directly to the wells and the reaction is monitored by following the release of the chromophore (pNA) at 405-603 nm at 37° C. for 20 minutes. A linear fit of the data is performed and the rate is calculated in mOD/min. DMSO is only present during experiments involving inhibitors, buffer is used to make up the volume to 100 μl in the other experiments.
For determination of enzyme inhibition constants (Ki) or the mode of inhibition (competitive, uncompetitive or noncompetitive), the rate data determined in the enzyme assays at varying inhibitor concentrations are computer-fit to standard enzyme kinetic equations (see I. H. Segel, Enzyme Kinetics, Wiley-Interscience, 1975).

[2] = Homo sapiens, PBMC, Example 6 table

Row | Molecule | Ki (ICE; Example 6 table) [nM] | IC50 [1, 2] [nM] | further results
1 | CC(=O)N[C@@H](Cc1ccc(O)cc1)C(=O)N[C@H](C(=O)N[C@@H](C)C(=O)N[C@H](CC(=O)O)C(=O)COCc1c(Cl)cccc1Cl)C(C)C (mixture of isomers) [Compound 84b, (R,S)N-[N-(Acetyl)tyrosinyl-valinyl-alaninyl]-3-amino-5-(2,6-dichlorophenylmethyloxy)-4-oxo-pentanoic acid] | – | – | IC50 ([1]; Homo sapiens, PBMC, Example 4 table): 500 nM; melting point: 165 to 168 °C
2 | C[C@H](NC(=O)c1ncc(CCc2ccccc2)[nH]1)C(=O)N[C@H](C=O)CC(=O)O [Compound 20c, (3S)3-{N-[4-(2-Phenylethyl)imidazole-2-carbonyl]-L-alaninyl}amino-4-oxobutanoic acid] | – | – | melting point: 102 to 104 °C
3 | O=C[C@H](CC(=O)O)NC(=O)[C@@H]1CCCN1C(=O)c1nc(CCc2ccccc2)c[nH]1 [Compound 21c, (3S)3{N-[4-(2-Phenylethyl)imidazole-2-carbonyl]-L-prolinyl}amino-4-oxobutanoic acid] | – | – | melting point: 101 to 103 °C
4 | COc1cccc2nc(C(=O)[C@H](CC(=O)O)NC(=O)Cn3c(Cc4ccccc4)ccc(NC(=O)CCc4ccccc4)c3=O)oc12 [Compound 127] | 390 | 8000 | –
5 | C[C@@H](C(=O)N[C@@H](CC(=O)O)C(=O)c1ncc(-c2c(Cl)cccc2Cl)o1)n1cccc(NC(=O)CCc2ccccc2)c1=O [Compound 129] | 590 | 25000 | –
6 | O=C[C@H](CC(=O)O)NC(=O)[C@@H]1CCCN2C(=O)C[C@H](NC(=O)CCc3ccccc3)C(=O)N12 [Compound 132a] | 5000 | > 30000 | –
7 | O=C[C@H](CC(=O)O)NC(=O)[C@@H]1CCCN2CC[C@H](NC(=O)CCc3ccccc3)C(=O)N12 [Compound 133] | 50000 | > 30000 | –
8 | CS(=O)(=O)N[C@H]1CCC(=O)N2CCC[C@@H](C(=O)N[C@H](C=O)CC(=O)O)N2C1=O [Compound 139] | 350 | 2000 | –
9 | O=C[C@H](CC(=O)O)NC(=O)[C@@H]1Cc2ccccc2[C@H]2CCC[C@H](NC(=O)CCc3ccccc3)C(=O)N21 [Compound 140] | 870 | > 30000 | –
10 | CC(C)[C@H](NC(=O)OCc1ccccc1)C(=O)N[C@@H](C)C(=O)N[C@@H](CC(=O)O)C(=O)c1ncc(-c2ccccc2C(F)(F)F)o1 [Compound 144] | 320 | > 20000 | –
11 | CC(C)[C@H](NC(=O)OCc1ccccc1)C(=O)N[C@@H](C)C(=O)N[C@@H](CC(=O)O)C(=O)c1ncc(-c2ccccc2)o1 [Compound 145] | 340 | 8500 | –
12 | CC(C)[C@H](NC(=O)OCc1ccccc1)C(=O)N[C@@H](C)C(=O)N[C@@H](CC(=O)O)C(=O)c1nccs1 [Compound 148] | 6300 | 30000 | –
13 | CC(C)[C@H](NC(=O)OCc1ccccc1)C(=O)N[C@@H](C)C(=O)N[C@@H](CC(=O)O)C(=O)c1cocn1 [Compound 149] | 14000 | > 30000 | –
14 | CC(C)[C@H](NC(=O)OCc1ccccc1)C(=O)N[C@@H](C)C(=O)NC(CC(=O)O)C(=O)c1ncc(-c2ccccc2)[nH]1 (stereo partly shown) [Compound 150] | 10000 | 30000 | –
15 | CC(C)[C@H](NC(=O)OCc1ccccc1)C(=O)N[C@@H](C)C(=O)NC(CC(=O)O)C(=O)c1ncc[nH]1 (stereo partly shown) [Compound 151] | 13000 | 30000 | –
16 | (3S)t-Butyl N-(N-acetyl-(S)-tyrosinyl-(S)-valinyl-(S)-alaninyl)-3-amino-4-(2-(4-methoxybenzoxazolyl))-4-oxobutanoate [Compound 69b] | – | – | IC50 ([1]; Example 4 table): 745 nM; Ki (ICE; Example 4 table): 50 nM

The remaining molecules from weak to strong by Ki (ICE; Example 6 table), led by results:

Row | Ki (ICE; Example 6 table) [nM] | Molecule | IC50 [1, 2] [nM] | further results
17 | 320 | COc1cccc2oc(C(=O)[C@H](CC(=O)O)NC(=O)[C@@H]3CCCN4C(=O)CC[C@H](NC(=O)CCc5ccccc5)C(=O)N34)nc12 [Compound 135b] | 950 | –
18 | 260 | CC(C)[C@H](NC(=O)OCc1ccccc1)C(=O)N[C@@H](C)C(=O)N[C@@H](CC(=O)O)C(=O)c1ncc(-c2ccccc2Cl)o1 [Compound 147] | 8500 | –
19 | 160 | CC(C)[C@H](NC(=O)OCc1ccccc1)C(=O)N[C@@H](C)C(=O)N[C@@H](CC(=O)O)C(=O)c1ncc(-c2c(Cl)cccc2Cl)o1 [Compound 146] | 3800 | –
20 | 145 | CC(=O)N[C@H](C(=O)N1C[C@H](Oc2ccccc2)C[C@H]1C(=O)N[C@@H](CC(=O)O)C(=O)c1ncc(-c2c(Cl)cccc2Cl)o1)C(C)C [Compound 160] | 2250 | –
21 | 90 | COc1cccc2nc(C(=O)[C@H](CC(=O)O)NC(=O)[C@@H]3CCCN4C(=O)CC[C@H](NC(=O)CCc5ccccc5)C(=O)N34)oc12 [Compound 135a] | 900 | –
22 | 42 | CC(=O)N[C@@H](Cc1ccc(O)cc1)C(=O)N[C@H](C(=O)N[C@@H](C)C(=O)N[C@@H](CC(=O)O)C(=O)c1ncc(-c2c(Cl)cccc2Cl)s1)C(C)C [Compound 154] | 2400 | –
23 | 40 | O=C(O)C[C@H](NC(=O)Cn1c(Cc2ccccc2)ccc(NC(=O)CCc2ccccc2)c1=O)C(=O)c1ncc(-c2c(Cl)cccc2Cl)o1 [Compound 128] | 7500 | –
24 | 40 | O=C(O)C[C@H](NC(=O)[C@@H]1CCCN2C(=O)CC[C@H](NC(=O)CCc3ccccc3)C(=O)N12)C(=O)c1ncc(-c2c(Cl)cccc2Cl)o1 [Compound 137] | 250 | –
25 | 2.8 | CC(=O)N[C@@H](Cc1ccc(O)cc1)C(=O)N[C@H](C(=O)N[C@@H](C)C(=O)N[C@@H](CC(=O)O)C(=O)c1ncc(-c2c(Cl)cccc2Cl)o1)C(C)C [Compound 163] | 1200 | –
26 | 1.7 | COc1cccc2nc(C(=O)[C@H](CC(=O)O)NC(=O)[C@@H]3C[C@@H](Oc4ccccc4)CN3C(=O)[C@@H](NC(=O)[C@H](Cc3ccc(O)cc3)NC(C)=O)C(C)C)oc12 [Compound 159] | 8000 | –
27 | 1 | CC(=O)N[C@@H](Cc1ccc(O)cc1)C(=O)N[C@H](C(=O)N1C[C@H](Oc2ccccc2)C[C@H]1C(=O)N[C@@H](CC(=O)O)C(=O)c1ncc(-c2c(Cl)cccc2Cl)o1)C(C)C [Compound 156] | 2700 | –
